This passage reports DC50 and Dmax results from patent publication US11427548B2 (Arvinas Operations, Inc., priority 2015, dated 2022).

Read-outs that look alike come from different tables or passages of the source. Some results are limits rather than exact numbers.

The test deals with T1, Androgen Receptor (Homo sapiens, UniProt P10275).
T1 construct: endogenous in cells; host or cells: VCaP cells
T1 sequence (P10275 1-920): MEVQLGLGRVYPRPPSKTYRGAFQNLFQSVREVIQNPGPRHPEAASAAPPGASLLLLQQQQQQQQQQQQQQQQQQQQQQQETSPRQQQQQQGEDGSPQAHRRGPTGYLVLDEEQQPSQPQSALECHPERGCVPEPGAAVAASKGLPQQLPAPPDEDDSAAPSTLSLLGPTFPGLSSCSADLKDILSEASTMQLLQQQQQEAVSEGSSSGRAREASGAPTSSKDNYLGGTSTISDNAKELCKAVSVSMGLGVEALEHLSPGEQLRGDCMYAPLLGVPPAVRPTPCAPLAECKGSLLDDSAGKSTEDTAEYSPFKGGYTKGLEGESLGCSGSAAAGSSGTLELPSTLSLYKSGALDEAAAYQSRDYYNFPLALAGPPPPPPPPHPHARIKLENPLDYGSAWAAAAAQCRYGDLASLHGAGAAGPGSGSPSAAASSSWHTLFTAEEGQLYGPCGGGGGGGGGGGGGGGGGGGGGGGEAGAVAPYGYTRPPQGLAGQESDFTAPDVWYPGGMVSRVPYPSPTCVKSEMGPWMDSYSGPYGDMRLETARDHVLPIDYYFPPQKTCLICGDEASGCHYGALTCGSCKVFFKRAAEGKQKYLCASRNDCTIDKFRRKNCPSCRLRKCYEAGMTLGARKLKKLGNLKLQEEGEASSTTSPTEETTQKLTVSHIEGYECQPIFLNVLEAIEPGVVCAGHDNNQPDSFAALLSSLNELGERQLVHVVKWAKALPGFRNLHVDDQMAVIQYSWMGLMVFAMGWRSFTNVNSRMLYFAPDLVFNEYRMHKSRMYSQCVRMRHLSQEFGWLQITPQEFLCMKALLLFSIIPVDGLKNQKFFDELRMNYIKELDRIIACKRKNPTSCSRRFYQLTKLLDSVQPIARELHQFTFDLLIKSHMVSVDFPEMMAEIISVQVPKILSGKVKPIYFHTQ
Kind of test: Androgen Receptor ELISA assay (PathScan AR ELISA) in VCaP cells: AR degradation, Dmax and DC50. Conditions: for DC50: read-out: VCaP DC50; for Dmax: VCaP. The test is classed as cell-based. The method in brief: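 After 24 h exposure of VCaP cells (charcoal-stripped serum, 0.1 nM R1881 agonist, 0.1% DMSO) to seven half-log compound concentrations, residual AR in lysates was measured by PathScan ELISA (TMB absorbance, 450 nm). Cells were plated at 30,000/well and grown at least 3 days beforehand.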

[1] abbreviates: VCaP cells, Table 36, read-out: VCaP Dmax (%).
Where [2] appears, read: read-out: VCaP Dmax (%), VCaP cells, Table 36.

For `CC(C)(C)[C@H](NC(=O)COCCN1CCN(c2ccc(C(=O)N[C@H]3C(C)(C)[C@H](Oc4ccc(C#N)c(Cl)c4)C3(C)C)cn2)CC1)C(=O)N1C[C@H](O)C[C@H]1C(=O)NCc1ccc(Cl)cc1` [Example 737, N-((1r,3r)-3-(3-chloro-4-cyanophenoxy)-2,2,4,4-tetramethylcyclobutyl)-6-(4-(2-(2-(((S)-1-((2S,4R)-2-((4-chlorobenzyl)carbmaoyl)-4-hydroxypyrrolidin-1-yl)-3,3-dimethyl-1-oxobutan-2-yl)amino)-2-oxoethoxy)ethyl)pipera-zin-1-yl)nicotinamdie], under “VCaP cells, Table 36”, the DC50 is above 501 nM. Besides, the maximal degradation (Dmax) under setting [1] lay within 26 to 50%.
Taken in the same sequence, the figures for `CC(C)C[C@@H](C(=O)N[C@@H](C)C(=O)N1C[C@H](O)C[C@H]1C(=O)N[C@@H](C)c1ccc(Cl)cc1)N1CCN(CCCc2ccc(C(=O)N[C@H]3C(C)(C)[C@H](Oc4ccc(C#N)c(Cl)c4)C3(C)C)cc2)CC1` [Example 738, (2S,4R)-1-(((S)-2-(4-(3-(4-(((1r,3r)-3-(3-chloro-4-cyanophenoxy)-2,2,4,4-tetramethylcyclobutyl)carbamoyl)phenyl)propyl)piperazin-1-yl)-4-methylpentanoyl)-L-alanyl)-N-((S)-1-(4-chlorophenyl)ethyl)-4-hydroxypyrrolidine-2-carboxamide] were above 501 nM and below 25%.
For the compound `C[C@H](NC(=O)[C@@H]1C[C@@H](O)CN1C(=O)[C@@H](NC(=O)CN1CCN(CCCc2ccc(C(=O)N[C@H]3C(C)(C)[C@H](Oc4ccc(C#N)c(Cl)c4)C3(C)C)cc2)CC1)C(C)(C)C)c1ccc(Cl)cc1` [Example 739, (2S,4R)-1-((S)-2-(2-(4-(3-(4-(((1r,3r)-3-(3-chloro-4-cyanophenoxy)-2,2,4,4-tetramethylcyclobutyl)carbamoyl)phenyl)propyl)piperazin-1-yl)acetamido)-3,3-dimethylbutanoyl)-N-((S)-1-(4-chlorophenyl)ethyl)-4-hydroxypyrrolidine-2-carboxamide], the 50% degradation concentration (DC50) (VCaP cells, Table 36) is above 501 nM. Besides, the Dmax under setting [1] is below 25%.
Taken in the same sequence, the figures for `C[C@H](NC(=O)C1C[C@@H](O)CN1C(=O)[C@@H](NC(=O)COCCCCCc1ccc(C(=O)N[C@H]2C(C)(C)[C@H](Oc3ccc(C#N)c(Cl)c3)C2(C)C)cc1)C(C)(C)C)c1ccc(Cl)cc1` (stereo partly drawn) [Example 740, (2S,4R)-1-((S)-2-(2-((5-(4-(((1r,3r)-3-(3-chloro-4-cyanophenoxy)-2,2,4,4-tetramethylcyclobutyl)carbamoyl)phenyl)pentyl)oxy)acetamido)-3,3-dimethylbutanoyl)-N-((S)-1-(4-chlorophenyl)ethyl)-4-hydroxypyrroldiine-2-carboxamide] were below 50 nM and 51 to 70%.
For the compound `Cc1ncsc1-c1ccc([C@H](C)NC(=O)[C@@H]2C[C@@H](O)CN2C(=O)[C@@H](NC(=O)CN2CCN(CC3(Cc4ccc(C(=O)N[C@H]5C(C)(C)[C@H](Oc6ccc(C#N)c(C(F)(F)F)c6)C5(C)C)cc4)COC3)CC2)C(C)(C)C)cc1` [Example 741, (2S,4R)-1-((S)-2-(2-(4-((3-(4-(((1r,3r)-3-(4-cyano-3-(trifluoromethyl)phenoxy)-2,2,4,4-tetramethylcyclobutyl)carbamoyl)benzyl)oxetan-3-yl)methyl)piperazin-1-yl)acetamido)-3,3-dimethylbutanoyl)-4-hydroxy-N-((S)-1-(4-(4-methylthiazol-5-yl)phenyl)ethyl)pyrrolidine-2-carboxamide], under “VCaP cells, Table 36”, the DC50 is below 50 nM. Besides, the maximal degradation (Dmax) (read-out: VCaP Dmax (%)) lay in the range of 51 to 70%.
`CC(C)[C@H](OCCN1CCN(c2ccc(C(=O)N[C@H]3C(C)(C)[C@H](Oc4ccc(C#N)c(Cl)c4)C3(C)C)cn2)CC1)C(=O)N[C@H](C(=O)N1C[C@H](O)C[C@H]1C(=O)NCc1ccc(Cl)cc1)C(C)(C)C` [Example 742, N-((1r,3r)-3-(3-chloro-4-cyanophenoxy)-2,2,4,4-tetramethylcyclobutyl)-6-(4-(2-(((S)-1-(((S)-1-((2S,4R)-2-((4-chlorobenzyl)carbamoyl)-4-hydroxypyrrolidin-1-yl)-3,3-dimethyl-1-oxoutan-2-yl)amino)-3-methyl-1-oxobutan-2-yl)oxy)ethyl)piperazin-1-yl)nicotinamide]: the DC50 (VCaP cells, Table 36) was above 501 nM. For the same compound, the Dmax under setting [1] was below 25%.
Taken in the same sequence, the figures for `CC(C)[C@@H](C(=O)N1C[C@H](O)C[C@H]1C(=O)NCc1ccc(Cl)cc1OCCN1CCN(c2ccc(C(=O)N[C@H]3C(C)(C)[C@H](Oc4ccc(C#N)c(Cl)c4)C3(C)C)cn2)CC1)N1Cc2ccccc2C1=O` [Example 743, 6-(4-(2-(5-chloro-2-(((2S,4R)-4-hydroxy-1-((S)-3-methyl-2-(1-oxoisoindolin-2-yl)butanoyl)pyrrolidine-2-carboxamido)methyl)phenoxy)ethyl)piperazin-1-yl)-N-((1r,3r)-3-(3-chloro-4-cyanophenoxy)-2,2,4,4-tetramethylcyclobutyl) nicotinamide] were above 501 nM and below 25%.
Regarding `Cc1ncsc1-c1ccc([C@H](C)NC(=O)[C@@H]2C[C@@H](O)CN2C(=O)[C@@H](NC(=O)CN2CCN(CCC3(c4ccc(C(=O)N[C@H]5C(C)(C)[C@H](Oc6ccc(C#N)c(Cl)c6)C5(C)C)cc4)COC3)CC2)C(C)(C)C)cc1` [Example 744, (2S,4R)-1-((S)-2-(2-(4-(2-(3-(4-(((1r,3r)-3-(3-chloro-4-cyanophenoxy)-2,2,4,4-tetramethylcyclobutyl)carbamoyl)phenyl)oxetan-3-yl)ethyl)piperazin-1-yl)acetamido)-3,3-dimethylbutanoyl)-4-hydroxy-N-((S)-1-(4-(4-methylthiazol-5-yl)phenyl)ethyl)pyrrolidine-2-carboxamide], the DC50 (VCaP cells, Table 36) was above 501 nM. For the same compound, the Dmax (read-out: VCaP Dmax (%)) is below 25%.
With `Cc1ncsc1-c1ccc([C@H](C)NC(=O)[C@@H]2C[C@@H](O)CN2C(=O)[C@H](NC(=O)CN2CCN(CCCc3ccc(C(=O)N[C@H]4C(C)(C)[C@H](Oc5ccc(C#N)c(C#N)c5)C4(C)C)cc3)CC2)C2COC2)cc1` [Example 745, (2S,4R)-1-((R)-2-(2-(4-(3-(4-(((1r,3r)-3-(3,4-dicyanophenoxy)-2,2,4,4-tetramethylcyclobutyl)carbamoyl)phenyl)propyl)piperazin-1-yl)acetamido)-2-(oxetan-3-yl)acetyl)-4-hydroxy-N-((S)-1-(4-(4-methylthiazol-5-yl)phenyl)ethyl)pyrrolidine-2-carboxamide], the DC50 (VCaP cells, Table 36) was above 501 nM. Also, the maximal degradation (Dmax) under setting [2] is below 25%.
In the case of `Cc1ncsc1-c1ccc([C@H](C)NC(=O)[C@@H]2C[C@@H](O)CN2C(=O)[C@@H](NC(=O)CN2CCN(CCCc3ccc(C(=O)N[C@H]4C(C)(C)[C@H](Oc5ccc(C#N)c(C#N)c5)C4(C)C)cc3)CC2)C2COC2)cc1` [Example 746, (2S,4R)-1-((S)-2-(2-(4-(3-(4-(((1r,3r)-3-(3,4-dicyanophenoxy)-2,2,4,4-tetramethylcyclobutyl)carbamoyl)phenyl)propyl)piperazin-1-yl)acetamido)-2-(oxetan-3-yl)acetyl)-4-hydroxy-N-((S)-1-(4-(4-methylthiazol-5-yl)phenyl)ethyl)pyrrolidine-2-carboxamide], the DC50 (VCaP cells, Table 36) was above 501 nM. Moreover, the greatest degradation seen (Dmax) under setting [2] is below 25%.
As for `Cc1ncsc1-c1ccc([C@H](C)NC(=O)[C@@H]2C[C@@H](O)CN2C(=O)[C@@H](NC(=O)CCCc2ccc(C(=O)N[C@H]3C(C)(C)[C@H](Oc4ccc(C#N)c(Cl)c4)C3(C)C)cc2)C(C)(C)C)cc1` [Example 747, (2S,4R)-1-((S)-2-(4-(4-(((1r,3S)-3-(3-chloro-4-cyanophenoxy)-2,2,4,4-tetramethylcyclobutyl)carbamoyl)phenyl)butan-amido)-3,3-dimethylbutanoyl)-4-hydroxy-N-((S)-1-(4-(4-methylthiazol-5-yl)phenyl)ethyl)pyrrolidine-2-carboxamide], where the note is “VCaP cells, Table 36”, the half-maximal degradation concentration (DC50) was above 501 nM. Moreover, the Dmax under setting [1] is below 25%.
Taken in the same sequence, the figures for `Cc1ncsc1-c1ccc([C@H](C)NC(=O)[C@@H]2C[C@@H](O)CN2C(=O)C(NC(=O)CCCCCc2ccc(C(=O)N[C@H]3C(C)(C)[C@H](Oc4ccc(C#N)c(Cl)c4)C3(C)C)cc2)C(C)(C)C)cc1` (stereo partly drawn) [Example 748, (2S,4R)-1-((S)-2-(6-(4-(((1r,3r)-3-(3-chloro-4-cyanophenoxy)-2,2,4,4-tetramethylcyclobutyl)carbamoyl)phenyl)hexan-amido)-3,3-dimethylbutanoyl)-4-hydroxy-N-((S)-1-(4-(4-methylthiazol-5-yl)phenyl)ethyl)pyrrolidine-2-carboxamide] were below 50 nM and 26 to 50%.
